# Test results from the supplement of paper PMC10307832.
# Key:
# Test in all cases: relative viability (nuclei count vs DMSO), 5 days (fraction); higher = more cells survive
# IU1-47 + Lapatinib = compound: CC1=CC(=C(N1C2=CC=C(C=C2)Cl)C)C(=O)CN3CCCCC3 [IU1-47] + CS(=O)(=O)CCNCc1ccc(-c2ccc3ncnc(Nc4ccc(OCc5cccc(F)c5)c(Cl)c4)c3c2)o1 [Lapatinib] (partner 2 µM)
# Method in brief: (§1)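 After 5 days of treatment, lung cancer cells in 1536-well plates were fixed and stained in a single step (final 0.05% Triton X-100, 1% formaldehyde, 1 ug/ml Hoechst) and their nuclei counted on 4× images. Treatment had been applied by pin tool the day after seeding as one drug alone or as a fixed anchor-drug dose with five library-drug doses (not always all listed) in √10 steps. Relative viability is the nuclei count of treated wells divided by that of vehicle wells, and values are medians of duplicate plates.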
# FG-4592 + Palbociclib = compound: Cc1nc(C(=O)NCC(=O)O)c(O)c2ccc(Oc3ccccc3)cc12 [FG-4592] + CC(=O)c1c(C)c2cnc(Nc3ccc(N4CCNCC4)cn3)nc2n(C2CCCC2)c1=O [Palbociclib] (partner 0.5 µM)
# Method in brief: as §1
# FG-4592 + Luminespib = compound: Cc1nc(C(=O)NCC(=O)O)c(O)c2ccc(Oc3ccccc3)cc12 [FG-4592] + CCNC(=O)c1noc(-c2cc(C(C)C)c(O)cc2O)c1-c1ccc(CN2CCOCC2)cc1 [Luminespib] (partner 0.01 µM)
# Method in brief: as §1
# FG-4592 + Phenformin = compound: Cc1nc(C(=O)NCC(=O)O)c(O)c2ccc(Oc3ccccc3)cc12 [FG-4592] + N=C(N)NC(=N)NCCc1ccccc1 [Phenformin] (partner 250 µM)
# Method in brief: as §1
Cell Line,relative viability (IU1-47 + Lapatinib; first compound 0.08 µM),relative viability (IU1-47 + Lapatinib; first compound 0.253 µM),relative viability (IU1-47 + Lapatinib; first compound 0.8 µM),relative viability (IU1-47 + Lapatinib; first compound 2.53 µM),relative viability (IU1-47 + Lapatinib; first compound 8 µM),relative viability (FG-4592 + Palbociclib; first compound 0.08 µM),relative viability (FG-4592 + Palbociclib; first compound 0.253 µM),relative viability (FG-4592 + Palbociclib; first compound 0.8 µM),relative viability (FG-4592 + Palbociclib; first compound 2.53 µM),relative viability (FG-4592 + Palbociclib; first compound 8 µM),relative viability (FG-4592 + Luminespib; first compound 0.08 µM),relative viability (FG-4592 + Luminespib; first compound 0.253 µM),relative viability (FG-4592 + Luminespib; first compound 0.8 µM),relative viability (FG-4592 + Luminespib; first compound 2.53 µM),relative viability (FG-4592 + Luminespib; first compound 8 µM),relative viability (FG-4592 + Phenformin; first compound 0.08 µM),relative viability (FG-4592 + Phenformin; first compound 0.253 µM),relative viability (FG-4592 + Phenformin; first compound 0.8 µM),relative viability (FG-4592 + Phenformin; first compound 2.53 µM),relative viability (FG-4592 + Phenformin; first compound 8 µM)
NCI-H3122,1.06,1.06,1.06,1.09,1.03,0.194,0.203,0.168,0.216,0.197,0.079,0.108,0.0631,0.092,0.0857,0.42,0.349,0.398,0.334,0.385
NCI-H1975,0.844,0.879,0.934,0.883,0.846,0.511,0.534,0.53,0.437,0.379,0.305,0.244,0.2,0.187,0.0934,0.384,0.399,0.369,0.384,0.396
NCI-H1944,0.835,0.845,0.779,–,0.801,0.329,0.329,0.282,0.363,0.29,0.762,0.716,0.728,0.891,0.763,0.194,0.187,0.185,0.18,0.2
LU99A,0.933,1.07,1.16,1.02,1,0.38,0.417,–,0.432,0.382,0.287,0.254,0.294,0.234,0.279,0.839,0.774,0.706,0.82,0.921
SW 1573,1.08,1.06,0.894,0.966,1.16,0.342,0.368,0.382,0.31,0.238,0.224,0.547,0.186,0.415,0.223,0.388,0.346,0.435,0.372,0.35
NCI-H2347,1.13,0.863,1.04,0.761,0.834,0.421,0.433,0.41,0.454,0.407,0.4,–,0.258,0.323,0.293,0.284,–,0.376,0.5,0.441
NCI-H2009,0.997,1.03,1.07,0.43,1.54,0.196,0.201,0.228,0.24,0.0739,1.04,0.936,1.01,0.959,0.999,0.502,0.402,0.53,0.454,0.549
HCC-15,0.897,0.854,0.999,0.677,0.798,0.73,0.767,0.684,0.733,0.755,0.403,0.371,0.26,0.302,0.253,0.524,0.424,0.533,0.462,0.503
HCC-44,0.985,1.03,1.07,1.05,0.825,0.923,0.954,0.91,0.943,0.97,1.05,1.01,–,0.934,1.05,0.107,0.184,–,0.145,0.151
HCC-78,0.721,0.347,1,0.717,0.712,0.468,0.486,0.465,0.453,0.438,–,–,–,–,–,0.683,0.621,0.809,0.723,0.716
NCI-H1299,0.962,0.982,0.975,1.02,0.934,–,–,–,–,–,–,–,–,–,–,–,–,–,–,–
LCLC-103H,–,–,–,–,–,0.474,0.408,0.414,0.467,0.454,0.891,0.935,0.998,1.09,0.855,0.3,0.325,0.248,0.294,0.319
ChaGo-K-1,–,–,–,–,–,0.9,0.878,1.01,0.914,0.958,0.522,0.548,0.594,0.702,0.459,0.525,0.478,0.44,0.466,0.492
NCI-H1648,–,–,–,–,–,0.248,0.29,–,0.282,0.262,–,–,–,–,–,–,–,–,–,–
NCI-H596,1.04,1.11,1.02,1.2,0.989,–,–,–,–,–,1.14,1.08,0.886,1.15,0.676,0.637,0.712,0.512,0.72,0.473
NCI-H1563,0.935,0.914,1.25,0.793,0.73,–,–,–,–,–,0.552,0.528,0.537,0.534,0.535,0.663,0.735,0.684,0.665,0.603
A549,0.987,1.1,0.92,1.08,0.858,–,–,–,–,–,–,–,–,–,–,0.166,0.154,0.159,0.191,0.216
NCI-H522,–,–,–,–,–,0.97,0.884,–,1.1,0.811,0.895,1.22,1.18,1.01,1.08,0.711,0.583,0.562,0.669,0.641
NCI-H1623,–,–,–,–,–,–,–,–,–,–,0.466,0.547,0.409,0.492,0.415,0.607,0.609,0.595,0.517,0.542
SW 900,–,–,–,–,–,–,0.525,–,0.568,0.5,0.168,0.167,0.174,0.174,0.165,0.584,0.687,0.439,0.47,0.586
IA-LM,–,1.08,0.832,0.997,0.664,–,–,–,–,–,–,–,–,–,–,–,–,–,–,–
EBC-1,0.214,0.216,0.218,0.226,0.205,–,–,–,–,–,–,–,–,–,–,–,–,–,–,–
